The text below walks through data of patent US6429191B1, “Treatment of hearing impairments” (Genentech, Inc., priority 1996, dated 2002).

One test addresses trkC receptor (Homo sapiens, UniProt Q16288). Conditions: naturally occurring NGF vs NT-3; cited from earlier work.
Test [1] deals with SGNs in cochlear explants. In words: Protective effects in cochlear explant cultures co-treated with ototoxins, SGN peripheral axon count. The class given is cell-based, rat. Conditions: 20 ng/ml neurotrophin; sodium salicylate 5 mM or gentamicin 3 mM. The protocol: FIGS. 9A and 9B depict quantitation of protective effects of NT-4/5 on SGNs (FIG. 9A) and hair cells (FIG. 9B). […] The same experimental procedures were performed as in FIGS. 6A and 6B. The error bars are SEM and ** indicate that as compared to the cultures containing an ototoxin alone, p<0.001. “Con” indicates control culture.
FIG. 10 depicts quantitation of neuroprotection of different neurotrophins against sodium salicylate (Sal) and gentamicin (Gent). […] Sodium salicylate (5 mM) or gentamicin (3 mM) was added either alone or in combination with one of the neurotrophins (20 ng/ml) to 2-day cultures and the cultures were kept for 2 more days. The same experimental procedures were performed as in FIGS. 6A and 6B. […] The error bars are SEM and ** indicate that as compared to the cultures containing an ototoxin alone, p<0.001.
The protective effect of neurotrophins against ototoxicity was determined in the organotypic cultures of postnatal cochlear explants described in the Examples above. […] A human recombinant neurotrophin (Genentech, Inc.) or other growth factors, alone or in combination, was added to the culture at the same time the ototoxin was added.
Two days after treatment with ototoxins or co-treatment with ototoxins and neurotrophins (or other growth factors), the cochlear explant cultures were fixed in 4% paraformaldehyde in 0.1 M phosphate buffer (pH 7.4) for 30 min, washed in PBS, and subjected to double histochemical staining of the cochlear explant cultures. After incubation with the monoclonal antibody N52 against neurofilament protein (200 kd) in 1% Triton X100 containing 3% normal goat serum (“NGS”) for 2 days at 4° C., the explants were incubated with a Texas red-conjugated goat anti-mouse secondary antibody (1:70; Cappel) at room temperature for 40 min. The preparations were then stained with FITC-conjugated phalloidin (0.5 μg/ml; Sigma) for 45 min, washed in PBS and mounted in Fluoromount-G (Southern Biotechnology Associates, Birmingham, Ala.) which contains an anti-fading agent.

In another test the target is trkB receptor (Homo sapiens, UniProt Q16620). To be noted: naturally occurring NGF vs BDNF; cited from earlier work.
trkB receptor, sequence (Q16620 32-822): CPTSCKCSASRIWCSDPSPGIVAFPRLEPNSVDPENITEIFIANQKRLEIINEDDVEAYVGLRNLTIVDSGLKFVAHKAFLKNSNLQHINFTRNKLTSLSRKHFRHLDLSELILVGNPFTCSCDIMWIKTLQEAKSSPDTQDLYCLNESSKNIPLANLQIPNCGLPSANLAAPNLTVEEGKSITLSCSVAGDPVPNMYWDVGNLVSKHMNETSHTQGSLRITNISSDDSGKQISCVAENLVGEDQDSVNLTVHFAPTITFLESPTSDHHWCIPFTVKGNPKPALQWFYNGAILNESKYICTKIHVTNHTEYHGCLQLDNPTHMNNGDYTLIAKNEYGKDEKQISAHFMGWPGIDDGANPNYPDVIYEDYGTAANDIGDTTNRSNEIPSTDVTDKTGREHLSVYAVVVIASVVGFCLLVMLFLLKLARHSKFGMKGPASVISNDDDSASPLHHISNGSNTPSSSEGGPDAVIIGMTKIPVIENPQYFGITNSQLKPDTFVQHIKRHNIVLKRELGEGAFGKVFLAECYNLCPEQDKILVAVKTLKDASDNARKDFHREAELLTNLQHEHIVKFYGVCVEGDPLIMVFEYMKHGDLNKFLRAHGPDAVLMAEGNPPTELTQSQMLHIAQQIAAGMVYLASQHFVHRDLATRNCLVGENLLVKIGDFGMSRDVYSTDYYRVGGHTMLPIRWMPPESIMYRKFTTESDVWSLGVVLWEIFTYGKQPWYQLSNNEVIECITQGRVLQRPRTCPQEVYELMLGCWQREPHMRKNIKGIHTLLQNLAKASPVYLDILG
For test [2], the system named is spiral ganglion neurons (SGNs). Nature of the test: Neurotrophin protection of dissociated SGNs against cisplatin neurotoxicity. The class given is cell-based, rat. To be noted: 10 ng/ml neurotrophin, cisplatin 1, 2 or 4 μg/ml. The source says:
Quantitation of viable SGNs was done in the same way as in FIG. 1. The error bars stand for SEM. […] While no difference was found between cultures containing NT-4/5 and cultures containing BDNF, the difference between cultures containing NT-3 and cultures containing NT-4/5 or BDNF was statistically very significant (P<0.001).

The subject of test [3] is spiral ganglion neurons (SGNs). In words: Survival of dissociated spiral ganglion neurons in serum-free culture. The format is cell-based, rat. Conditions: P5 rat SGNs, 2 days, serum-free medium; neurotrophins 0.1-50 ng/ml. Here is the method: FIG. 1 is a histogram depicting the effects of NT-4/5 on SGN survival. SGNs were prepared from P5 rats, plated and kept for 2 days in serum-free medium in the absence or presence of NT-4/5 at different concentrations. Viable SGNs were identified by labeling with a neurofilament monoclonal antibody (N52), viewed under a Zeiss Axiophot microscope, and counted using a grid ocular reticule covering an area of […]. For each culture, about 10 randomly selected fields were counted. Data were collected from 3 to 5 cultures and normalized as a percentage of the number of viable neurons in the control cultures in each of the experiments. The error bars represent SEM.
FIG. 2 is a histogram depicting the effects of different neurotrophins on SGN survival. SGNs were prepared from P5 rats and maintained for 2 days in serum-free medium without or with different neurotrophins at different concentrations. Quantitation of viable SGNs was made in the same way as in FIG. 1 and the error bars are SEM. […] Difference between NT-3 and NT-4/5 or BDNF was very significant at all doses (P<0.001). No statistical difference was found between NT-4/5 and BDNF except the dose of 0.1 ng/ml (P<0.01).
Identical results (not shown) were also obtained with a different neuronal marker, a monoclonal antibody 3A10 (Furley et al., 1990). SGNs were dissociated from postnatal day 5 (P5) rat cochleae and plated in defined serum-free medium. […] The enzyme was inactivated with a mixture of 0.005% soybean trypsin inhibitor (Sigma) and 0.005% DNase (Worthington) before trituration with 0.05% DNase in Eagle's Basal Medium (“BME”). The dissociated cells were preplated on a 35 mm untreated tissue culture dish for 25 min to enrich the neuronal population. Under these experimental procedures, about 10% of the cell population were spiral ganglion neurons (“SGNs”) as determined by immunocytochemistry with a monoclonal antibody (N52; Boehringer) against neurofilaments (200 kd; Boehringer). […] Cells were plated at a density of 80,000/well. In control cultures about 75% of SGNs died after 2 days, presumably due to a lack of growth factors.

trkC receptor, sequence (Q16288 32-839): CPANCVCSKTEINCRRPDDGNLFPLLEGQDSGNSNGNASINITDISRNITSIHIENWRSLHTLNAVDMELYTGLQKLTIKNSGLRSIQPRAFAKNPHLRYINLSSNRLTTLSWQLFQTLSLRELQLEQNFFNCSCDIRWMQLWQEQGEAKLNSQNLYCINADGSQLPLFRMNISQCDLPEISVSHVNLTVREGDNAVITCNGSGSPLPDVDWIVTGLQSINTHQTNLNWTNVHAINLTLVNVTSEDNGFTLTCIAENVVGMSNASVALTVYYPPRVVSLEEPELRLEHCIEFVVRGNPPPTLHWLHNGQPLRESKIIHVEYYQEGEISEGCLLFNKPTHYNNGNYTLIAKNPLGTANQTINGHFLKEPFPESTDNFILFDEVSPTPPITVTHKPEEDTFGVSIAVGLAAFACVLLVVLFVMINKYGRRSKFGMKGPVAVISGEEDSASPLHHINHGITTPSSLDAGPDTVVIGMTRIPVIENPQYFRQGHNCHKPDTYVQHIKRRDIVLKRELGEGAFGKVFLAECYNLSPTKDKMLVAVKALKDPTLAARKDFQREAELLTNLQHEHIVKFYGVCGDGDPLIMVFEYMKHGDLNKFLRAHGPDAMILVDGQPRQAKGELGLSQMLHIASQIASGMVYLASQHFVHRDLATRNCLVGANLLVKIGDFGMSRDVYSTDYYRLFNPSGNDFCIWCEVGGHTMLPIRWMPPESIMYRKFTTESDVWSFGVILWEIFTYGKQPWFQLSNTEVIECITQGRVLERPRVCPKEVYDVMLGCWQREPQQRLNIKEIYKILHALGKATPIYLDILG

Take nerve growth factor [NGF]: the “KD at trkC relative to NT-3 (fold lower)” value with trkC receptor is recorded as 500-1000 fold. Also, the “neuroprotection of SGNs against sodium salicylate and gentamicin” value in test [1] is on record as “did not show any detectable protection”. Also, the “KD at trkB relative to BDNF (fold lower)” value in the test with trkB receptor is recorded as 500-1000 fold. Further, the “protective effects against cisplatin neurotoxicity” value in test [2] is reported as “did not show any protective effects”. Further, the “survival-promoting effect on SGNs” value in test [3] is reported as “no detectable effects”.
